The results in this text go back to patent US20230242586A1, “RAS INHIBITORS AND USES THEREOF” (The Regents of the University of California, priority 2020, published 2023).

Data set [1] deals with T1, K-Ras(G12D)·GppNHp and Raf1-RBD (Homo sapiens, UniProt P01116, G12D).
T1 construct: pET-Duet plasmids encoding BirA biotin-protein ligase and His-Avi-TEV-tagged K-Ras proteins were constructed; made in house; host or cells: E. coli BL21(DE3)
Nature of the data set: TR-FRET Ras-Raf interaction assay, K-Ras(G12D). The data set is classed as biochemical. As to conditions: KD2 Thr10 analogs compared to KD2. Background: In TR-FRET formats the signal depends on donor and acceptor labels being close together.

A short description of data set [2]: Solubility in aqueous buffer. As to conditions: for solubility (in words): KD2 Thr10 mutants, compared with parent peptide KD2. The data set is classed as physicochemical.
The next data set deals with SW1990 cells. Nature of the data set: Ras signaling (p-Akt, p-Erk) in SW1990 cells, Western blot. In kind it is cell-based. The note with it: SW1990, 10 μM, 24 h. The protocol: SW1990 cells were obtained from ATCC and maintained in DMEM (Gibco)+10% heat-inactivated FBS (Axenia Biologix) supplemented with penicillin and streptomycin (Gibco). When indicated, cells were treated with drugs at 60-80% confluency at a final DMSO concentration of 1%. At the end of treatment period, cells were placed on ice and washed once with PBS. The cells were scraped with a spatula, pelleted by centrifugation (500×g, 5 min) and lysed in RIPA buffer supplemented with protease and phosphatase inhibitors (cOmplete and phosSTOP, Roche) on ice for 10 min. Lysates were clarified by high-speed centrifugation. Concentrations of lysates were determined with protein BCA assay (Thermo Fisher) and adjusted to 2 mg/mL with additional RIPA buffer. Samples were mixed with 5×SDS Loading Dye and heated at 95° C. for 5 min.
Gel Electrophoresis and Western Blot
Unless otherwise noted, SDS-PAGE was run with Novex 4-12% Bis-Tris gel (Invitrogen) in MES running buffer (Invitrogen) at 200V for 40 min following the manufacturer's instructions. Protein bands were transferred onto 0.45-μm nitrocellulose membranes (Bio-Rad) using a wet-tank transfer apparatus (Bio-Rad Criterion Blotter) in 1×TOWBIN buffer with 10% methanol at 75V for 45 min. […] The membrane was washed three times with TBST (5 min each wash) and imaged on a Li-COR Odyssey fluorescence imager.
Background: A western blot detects proteins with antibodies after separation by electrophoresis.

Molecules are shown by their SMILES. Converted amounts (≈) assume the structure as drawn. “Also recorded” adds a separate entry of the source. A value given as a limit tells only on which side of the number the result lay.

T1 sequence (P01116 1-169 isoform P01116-2 G12D): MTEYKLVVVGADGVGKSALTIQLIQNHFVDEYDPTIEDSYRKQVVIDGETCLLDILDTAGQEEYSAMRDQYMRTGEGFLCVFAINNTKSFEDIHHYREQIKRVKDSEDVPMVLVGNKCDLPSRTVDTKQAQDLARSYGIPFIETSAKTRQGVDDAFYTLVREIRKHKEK

As for `CC1CCN(C[C@@H]2NC(=O)[C@H](CCCNC(=N)N)NC(=O)[C@H](Cc3ccccc3)NC(=O)[C@H](CC(N)=O)NC(=O)[C@H](CCCNC(=N)N)NC(=O)[C@H](Cc3ccccc3)NC(=O)[C@H](CC(N)=O)NC(=O)[C@H](C(C)C)NC(=O)[C@H](Cc3ccccc3)NC(=O)[C@@H](Cc3ccc(O)cc3)NC(=O)CSC[C@@H](C(=O)NCC(N)=O)NC(=O)[C@H](CCCNC(=N)N)NC(=O)[C@H](Cc3ccccc3)NC2=O)CC1` [Aza-X], the “potency relative to KD2, Ras·Raf interaction” value in data set [1] is more than 10 fold. Regarding `NC[C@H](N)C(=O)O` [Dap, 2,3-diaminoproprionic acid], in data set [2], the “solubility (in words)” value was “limited solubility”. `N[C@@H](Cc1c[nH]cn1)C(=O)O` [His, histidine]: the “solubility (in words)” value in data set [2] was “limited solubility”.

One may read the solubility as how much of the substance goes into solution per volume. Turning to `CC[C@H](C)[C@@H]1NC(=O)[C@H](Cc2ccccc2)NC(=O)[C@H](CCCCN)NC(=O)[C@H](CCC(=O)O)NC(=O)[C@H]([C@@H](C)O)NC(=O)[C@H](C(C)C)NC(=O)[C@H]([C@@H](C)CC)NC(=O)[C@H]([C@@H](C)CC)NC(=O)[C@@H](Cc2ccc(O)cc2)NC(=O)CSC[C@@H](C(=O)NCC(N)=O)NC(=O)[C@H](Cc2c[nH]cn2)NC(=O)[C@H](Cc2c[nH]cn2)NC(=O)[C@H](C(C)C)NC(=O)[C@H](Cc2c[nH]c3ccccc23)NC1=O` [KD1], the solubility in data set [2] (aqueous buffer) is approximately 50 µM (≈ 94.2 µg/mL). Also, in the data set on SW1990 cells, the “Ras signaling (p-Akt or p-Erk levels)” value is “did not observe any change; also recorded: does not inhibit Ras signaling”.

Consider `CC(C)C[C@@H]1NC(=O)[C@H](CCC(=O)O)NC(=O)[C@H](CC(C)C)NC(=O)[C@@H]2CCCN2C(=O)[C@H](CCCNC(=N)N)NC(=O)[C@H](Cc2ccc(O)cc2)NC(=O)[C@@H]2CCCN2C(=O)[C@H](Cc2ccc(O)cc2)NC(=O)[C@H](CC(N)=O)NC(=O)[C@@H](Cc2ccc(O)cc2)NC(=O)CSC[C@@H](C(=O)NCC(N)=O)NC(=O)[C@H](Cc2ccc(O)cc2)NC(=O)[C@H](Cc2c[nH]c3ccccc23)NC(=O)CNC1=O` [KD17], for which the “Ras signaling (p-Akt or p-Erk levels)” value in the data set with SW1990 cells is given as “did not observe any change; also recorded: does not inhibit Ras signaling”.

On to `NCCCC[C@H](N)C(=O)O` [Lys, lysine], for which, in data set [1], the “potency relative to KD2, Ras·Raf interaction” value is given as “about 3 fold”. The “solubility (in words)” value in data set [2] was “significantly lower”.
